Data: PMC4726814, “Molecular Characterization of E-Type Prostanoid Receptor 4 (EP4) from Ayu (Plecoglossus altivelis) and Its Functional Analysis in the Monocytes/Macrophages” (PLoS ONE, 2016)

Target: T1, PaEP4L (Plecoglossus altivelis, UniProt A0A142DUN0)
T1 construct: gene EP4; MG1 insect cell membranes
Assay: [3H]-PGE2 saturation binding to MG1 insect cell membranes, Scatchard

T1 sequence (A0A142DUN0 1-459): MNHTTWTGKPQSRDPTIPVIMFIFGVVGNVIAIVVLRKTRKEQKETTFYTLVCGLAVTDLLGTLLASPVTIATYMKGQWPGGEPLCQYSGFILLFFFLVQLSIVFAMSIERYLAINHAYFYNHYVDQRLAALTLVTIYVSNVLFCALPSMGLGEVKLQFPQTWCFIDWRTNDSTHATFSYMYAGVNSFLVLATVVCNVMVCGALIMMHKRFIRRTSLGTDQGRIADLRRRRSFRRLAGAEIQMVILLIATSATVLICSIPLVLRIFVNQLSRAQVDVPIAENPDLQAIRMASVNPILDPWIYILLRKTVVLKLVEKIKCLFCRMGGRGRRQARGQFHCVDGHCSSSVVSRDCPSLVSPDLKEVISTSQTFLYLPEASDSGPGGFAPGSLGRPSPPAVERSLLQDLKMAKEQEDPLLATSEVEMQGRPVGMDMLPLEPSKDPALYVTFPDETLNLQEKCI

Compound: CCCCC[C@H](O)/C=C/[C@H]1[C@H](O)CC(=O)[C@@H]1C/C=C\CCCC(=O)O [PGE2]
- Kd: 120 nM
